Measurements from PMC4492764, “Evaluation of biomarkers for in vitro prediction of drug-induced nephrotoxicity: comparison of HK-2, immortalized human proximal tubule epithelial, and primary cultures of human proximal tubular cells” (Pharmacology Research & Perspectives, 2015).
Where a name gives a salt, the structure may show the parent alone.

Columns and labels:
[1] = system: HK-2 cells; assay: MTT cytotoxicity assay in HK-2 cells; format: cell-based, human; conditions: 72 h incubation; Mean ± Standard deviation, n = 3
Procedure: (§1) For the MTT assay, the medium was then removed, the dried crystals were resuspended in 60 μL of Dimethyl sulfoxide (DMSO), and the absorbance was read at 570 nm. For the resazurin assay, the fluorescence intensity was read using a PolarStar Omega plate reader (BMG Labtech; Mornington VIC, Australia) at excitation/emission 560/590 nm. All assays were performed at least three times. […] La Jolla, CA). Both MTT and resazurin assays were performed three times, with two technical replicates in each assay.

[2] = system: hRPTECs; assay: MTT cytotoxicity assay in hRPTECs; format: cell-based, human; conditions: 72 h incubation; Mean ± Standard deviation, n = 3
Procedure: as §1

[3] = system: M-CSF; assay: M-CSF protein ELISA in HK-2 cells; format: cell-based, human; set-up: key: +: statistically significant increase; −: no significant increase; conditions: protein levels in culture medium; 72 h time point
Procedure: Sandwich-ELISA experiments were conducted following the manufacturer's instructions with slight modifications. A 96-well microplate (MaxiSorp®, Nunc, Thermo Scientific, NSW, Australia) was coated with 100 μL of capture antibodies (diluted 1:200 in PBS) and incubated overnight. The plate was then washed twice with washing buffer (0.05% Tween 20 in PBS, pH 7.4) and blocked by adding 300 μL of blocking buffer (1% bovine serum albumin (BSA) in PBS) for 1 h at room temperature. After washing two times with PBS, 100 μL of samples (cell culture media or cell lysates) or standards were then added to each well and incubated for 2 h at room temperature. The biotinylated detection antibodies were then diluted in blocking buffer, added to each well and incubated for 2 h. Horseradish peroxidase (HRP)-labeled streptavidin (100 μL) was then added to bind to detection antibodies. To each well, 100 μL of substrate solution (1:1 mixture of H2O2 and tetramethylbenzidine) was added and incubated for 20 min before reaction termination with 50 μL of stop solution (2N H2SO4). The optical density of each well was measured at 450 nm using a POLARstar Omega plate reader (BMG Labtech). All assays were performed at least three times, with at least two technical replicates in each assay.

[4] = system: M-CSF mRNA; assay: M-CSF mRNA qRT-PCR in HK-2 cells; format: cell-based, human; set-up: key to Upregulation of M-CSF HK-2 R: +: statistically significant increase; −: no significant increase; conditions: for Upregulation of M-CSF HK-2 R: mRNA levels, 72 h time point
Procedure: Hs00273334_m1), Lcn2 (NGAL; Hs01008571_m1), and Csf1 (M-CSF; Hs00174164_m1). All probes span an exon-exon junction. The real-time quantitative reverse transcription PCR (qRT-PCR) was performed in a 10 μl final reaction mixture using a ViiA 7TM system (Applied Biosystems®, Sydney, NSW, Australia) based on the following thermo cycling conditions: 10 min at 95°C for one cycle, 15 sec at 95°C, 60 sec at 60°C for 40 cycles. The ViiA 7TM software was used for data analysis with Hprt1 expression used for normalization. All assays were performed at least three times, with at least two technical replicates in each assay.

[5] = MTT cytotoxicity assay in HK-2 cells; format: cell-based, human; conditions: human, HK-2 cells; 72 h incubation; Mean ± Standard deviation, n = 3
Procedure: as §1

[6] = MTT cytotoxicity assay in hRPTECs; format: cell-based, human; conditions: human, hRPTECs (passage 2); 72 h incubation; Mean ± Standard deviation, n = 3
Procedure: as §1

[7] = Resazurin cytotoxicity assay in HK-2 cells; format: cell-based, human; conditions: human, HK-2 cells; 72 h incubation; Mean ± Standard deviation, n = 3
Procedure: as §1

[8] = Resazurin cytotoxicity assay in hRPTECs; format: cell-based, human; conditions: human, hRPTECs (passage 2); 72 h incubation; Mean ± Standard deviation, n = 3
Procedure: as §1

[9] = system: KIM-1; conditions: published in vivo data; ref Vaidya et al. [2006]; cited from earlier work
[10] = system: M-CSF; set-up: key: +: statistically significant increase; −: no significant increase; conditions: published in vivo data; ref Razzaque and Taguchi [2002]; Menke et al. [2009]; cited from earlier work

With Colistin sulfate as the molecule, how does the CC50 [1] read?
Its CC50 is over 300 µM.

And the CC50 [2]?
The CC50 was over 300 µM.

What about the “Upregulation of M-CSF HK-2 P” value [3] of the same molecule?
Its value is “−”.

And the “Upregulation of M-CSF HK-2 R” value [4]?
Its value is “−”.

For `CNC(C)C1CCC(N)C(OC2C(N)CC(N)C(OC3OCC(C)(O)C(NC)C3O)C2O)O1` (stereo not shown) [Gentamicin, gentamicin sulfate], which CC50 at 72 h [5] is on record?
Its CC50 at 72 h is over 1000 µM.

And the CC50 at 72 h [6]?
The CC50 at 72 h was over 1000 µM.

And the CC50 at 72 h [7]?
Its CC50 at 72 h is over 1000 µM.

What about the CC50 at 72 h [8] of the same molecule?
Its CC50 at 72 h is over 1000 µM.

Which “Upregulation of M-CSF HK-2 P” value [3] does the source give for `N.N.[Cl][Pt][Cl]` [Cisplatin, cisplatin] here?
The value was “−”.

What about the “M-CSF mRNA level in HK-2 cells” value ([4]; 72 h exposure, P < 0.005) of the same molecule?
Its value is “clearly increased”.

And the “Upregulation of M-CSF HK-2 R” value [4]?
The value was “+”.

What about the “Upregulation of KIM-1 in vivo” value [9] of the same molecule?
The value was >5-fold (Vaidya et al. [2006]).

What about the “Upregulation of M-CSF in vivo” value [10] of the same molecule?
Its value is “+ (Razzaque and Taguchi [2002]; Menke et al. [2009])”.
